Measured values published in US20140135272A1, “NOVEL ZINC FINGER-LIKE PEPTIDE COMPOSITIONS AS POTENT AGENTS IN CANCER PREVENTION AND TREATMENT” (priority 2011, published 2014).

Columns and labels:
Type in all cases: in vivo, nude mice
[1] = test system: malignant melanoma B16F10; assay: Example 3: peptide pre-injection, then malignant melanoma B16F10 inoculation, tumor volumes; settings: peptide 2 mM, 100 μl sterile water i.v. per week for 3 weeks before B16F10 inoculation; vs H2O control
Procedure: (§1) In the following examples, 8-week nude mice were used as host subjects to perform in vivo experiments. The nude mice were placed in room temperature and suitable humidity, and supplied with sterile water and standard food for 2 consecutive weeks before performing experiments. Then, the nude mice were injected with zinc finger-like peptide and tumor cells. The detailed processes for the experiments are described as follows.
(§2) First, manually synthesized zinc finger-like peptide (Genemed Synthesis Inc., San Antonio, Tex., USA) was resuspended in degassed purified water to obtain 1-5 mM of zinc finger-like peptide solution (100 μl). Herein, the solution for suspending the zinc finger-like peptide is not particularly limited. Preferably, the zinc finger-like peptide is resuspended in degassed purified water, in order to prevent the self-polymerization of the zinc finger-like peptide and loss its ability to inhibit tumor cell growth.
Herein, zinc finger-like peptide with sequence shown in SEQ ID NO: 1 is injected into nude mice.
With this experimental group, nude mice received an intravenous injection of peptide (2 mM, 100 μl sterile water) via tail veins per week for 3 consecutive weeks, followed by inoculation of malignant melanoma B16F10 (2 million cells/100 μl PBS) at both the right and left flanks. The tumor volumes (mm^3) were observed daily during the whole experiment. […]

[2] = test system: prostatic epithelial cells PZ-HPV-7; assay: Example 10: peptide pre-injection, then prostatic epithelial cells PZ-HPV-7 inoculation, tumor volumes; settings: peptide 2 mM, 100 μl i.v. per week for 3 weeks; PZ-HPV-7 inoculated on the 20th and 90th day; vs H2O control
Procedure: as §1, §2
(§3) In the present experimental group, zinc finger-like peptide with sequence shown in SEQ ID NO: 1 was injected into nude mice.
Nude mice were injected with an intravenous injection of peptide (2 mM, 100 μl) via tail veins per week for 3 consecutive weeks, followed by inoculating prostatic epithelial cells PZ-HPV-7 (2 million cells/100 μl medium) at both the right and left flanks on the 20th day and the 90th day. […]

[3] = test system: BCC cells; assay: Example 2: peptide pre-injection plus boost injection, BCC cell inoculation, tumor volumes; settings: peptide 2 mM, 100 μl i.v. per week for 3 weeks before BCC inoculation; boost per week for 3 weeks 2 months later; vs H2O control
Procedure: as §1, §2, §3
Nude mice were injected with an intravenous injection of peptide (2 mM, 100 μl PBS) via tail veins per week for 3 consecutive weeks, followed by inoculating BCC cells (2 million cells/100 μl PBS) at both the right and left flanks. 2 months later, boost injection of peptide was carried out per week for 3 consecutive weeks. […]

[4] = test system: malignant melanoma B 16F10; assay: Example 4: peptide variants pre-injected, then malignant melanoma B16F10 inoculation, tumor volumes and death; settings: peptide 2 mM, 100 μl i.v. per week for 2 weeks before B16F10 inoculation
Procedure: as §1, §2
Nude mice received an intravenous injection of peptide (2 mM, 100 μl) via tail veins per week for 2 consecutive weeks, followed by inoculating malignant melanoma B 16F10 (2 million cells/100 μl PBS) at both the right and left flanks. The tumor volumes (mm^3) were observed daily during the whole experiment.
as §3
In the present experimental group, zinc finger-like peptide with sequence shown in SEQ ID NO: 1, in which the fifth amino acid, serine was phosphorylated, and injected into nude mice.
In the present experimental group, zinc finger-like peptide with sequence shown in SEQ ID NO: 6 was injected into nude mice.
In the present experimental group, zinc finger-like peptide with sequence shown in SEQ ID NO: 6, in which the fourth amino acid serine was phosphorylated, and injected nude mice.
In the control group, H2O (100 μl) was injected into nude mice.

[5] = test system: breast carcinoma MDA-MB-468; assay: Example 7: peptide pre-injection, then breast carcinoma MDA-MB-468 inoculation, tumor volumes; settings: peptide 3 mM, 100 μl i.v. per week for 3 weeks before MDA-MB-468 inoculation; vs H2O control
Procedure: as §1, §2, §3
Nude mice were injected with an intravenous injection of peptide (3 mM, 100 μl) via tail veins per week for 3 consecutive weeks, followed by inoculating breast carcinoma MDA-MB-468 (2 million cells/100 μl medium) at both the right and left flanks. The tumor volumes (mm^3) were observed daily during the whole experiment. […]

[6] = test system: malignant glioma U87-MG cells; assay: Example 11: peptide pre-injection, malignant glioma U87-MG cells inoculated 1 month later, tumor volumes; settings: for growth and proliferation of tumor cells (tumor volumes): 100 μl i.v. per week for 3 weeks, U87-MG inoculated 1 month later, vs H2O control
Procedure: as §1, §2
The process of the present control group was the same as that of the experimental group, except that the zinc finger-like peptide of the experimental group was substituted with H2O (100 μl) in the present control group. The result is shown in FIG. 11A, which is a curve representing the tumor volumes of mice.
as §3
Nude mice were injected with an intravenous injection of peptide (2 mM, 100 μl) via tail veins per week for 3 consecutive weeks, followed by inoculating malignant glioma U87-MG cells (2 million cells/100 μl medium) at both the right and left flanks 1 month later. The tumor volumes (mm^3) were observed daily during the whole experiment. The result is shown in FIG. 11B, which is a curve representing the tumor volumes of mice.
The process of the present control group was the same as that of the experimental group 1, except that the concentration of the zinc finger-like peptide is 4 mM. The result is shown in FIG. 11C, which is a curve representing the tumor volumes of mice.

[7] = test system: malignant prostate cancer DU145 cells; assay: Example 9: peptide pre-injection, malignant prostate cancer DU145 cells inoculated three months later, tumor volumes; settings: peptide 2 mM, 100 μl i.v. per week for 3 weeks, vs H2O control
Procedure: as §1, §2, §3
Nude mice were injected with an intravenous injection of peptide (2 mM, 100 μl) via tail veins per week for 3 consecutive weeks, followed by inoculating malignant prostate cancer DU145 cells (2 million cells/100 μl medium) at both the right and left flanks three months later. […]

RRSSSCK [SEQ ID NO: 1, zinc finger-like peptide, manually synthesized]
tumor growth (tumor volumes) [1]: can inhibit the growth of skin melanoma on nude mice | growth and proliferation of tumor cells (tumor volumes) [2]: the growth and proliferation of tumor cells were not observed | tumor growth (tumor volumes) [3]: can prevent and inhibit the growth of cancer cell | skin cancer completely cured after [4]: 115 days | tumor growth / activity on skin cancer treatment ([4]; vs H2O control): can effectively inhibit the growth of tumor cells | growth and proliferation of tumor cells (tumor volumes) [5]: the growth and proliferation of tumor cells were not observed | concentration dependence of suppression on tumor cell growth ([6]; 2 mM vs 4 mM peptide, U87-MG): the suppression on tumor cell growth was getting significant as the concentration of the zinc finger-like peptide increased | growth and proliferation of tumor cells (tumor volumes) ([6]; peptide 2 mM): slower than that observed in the control group | growth and proliferation of tumor cells (tumor volumes) ([6]; peptide 4 mM): slower than that observed in the control group | growth and proliferation of tumor cells (tumor volumes) [7]: the growth and proliferation of tumor cells were not observed
